Our source for the inhibition and IC50 values is ChEMBL document CHEMBL3217594, “Structureactivity relationships of methyl-lysine reader antagonists” (Medchemcomm, 2012).

The target of test [1] is T1, Chromobox protein homolog 7 (Homo sapiens) (UniProt O95931).
T1 sequence (whole entry): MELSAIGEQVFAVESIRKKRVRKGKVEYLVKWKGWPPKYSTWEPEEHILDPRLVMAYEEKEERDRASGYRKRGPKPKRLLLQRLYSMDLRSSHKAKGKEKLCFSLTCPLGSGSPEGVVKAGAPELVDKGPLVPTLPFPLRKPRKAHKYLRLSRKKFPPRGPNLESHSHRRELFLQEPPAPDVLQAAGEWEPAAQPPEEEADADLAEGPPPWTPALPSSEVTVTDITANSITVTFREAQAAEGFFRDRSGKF
Nature of the test: Antagonist activity at Flag-tagged CBX7 (unknown origin) assessed as inhibition of CBX7/biotinylated H3K9Me3 peptide interaction at 30 uM after 30 mins by AlphaScreen assay.

The target in test [2] is T2, Scm-like with four MBT domains protein 1 (Homo sapiens) (UniProt Q9UHJ3).
T2 sequence (whole entry): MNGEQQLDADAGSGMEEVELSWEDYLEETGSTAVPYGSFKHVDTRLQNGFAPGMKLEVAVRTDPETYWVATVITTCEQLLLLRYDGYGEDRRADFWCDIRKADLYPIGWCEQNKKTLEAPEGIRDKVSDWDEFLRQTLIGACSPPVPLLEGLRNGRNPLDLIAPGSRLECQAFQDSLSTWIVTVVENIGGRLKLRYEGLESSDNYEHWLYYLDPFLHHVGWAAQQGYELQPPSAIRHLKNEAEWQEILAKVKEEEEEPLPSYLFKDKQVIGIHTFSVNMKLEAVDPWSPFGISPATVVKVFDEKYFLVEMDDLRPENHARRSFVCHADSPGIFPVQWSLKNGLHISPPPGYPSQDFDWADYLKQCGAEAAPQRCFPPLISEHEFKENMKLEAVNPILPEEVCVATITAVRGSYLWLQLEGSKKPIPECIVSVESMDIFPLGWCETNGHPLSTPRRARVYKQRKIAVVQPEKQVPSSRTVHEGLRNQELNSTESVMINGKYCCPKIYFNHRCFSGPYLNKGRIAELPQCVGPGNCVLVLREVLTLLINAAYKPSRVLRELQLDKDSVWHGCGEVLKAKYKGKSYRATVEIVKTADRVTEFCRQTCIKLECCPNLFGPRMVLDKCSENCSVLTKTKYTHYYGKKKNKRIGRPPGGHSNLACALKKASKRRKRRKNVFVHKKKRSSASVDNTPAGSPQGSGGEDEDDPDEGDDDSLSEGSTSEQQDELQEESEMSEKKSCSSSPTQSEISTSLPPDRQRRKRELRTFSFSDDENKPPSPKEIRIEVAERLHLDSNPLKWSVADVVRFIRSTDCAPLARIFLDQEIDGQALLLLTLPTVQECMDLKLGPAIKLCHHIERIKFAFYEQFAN
Nature of the test: Antagonist activity at SFMBT1 (unknown origin) assessed as inhibition of SFMBT1/biotinylated H3K9Me1 peptide interaction at 30 uM after 30 mins by AlphaScreen assay.

Test [3] concerns the target T3, Lethal(3)malignant brain tumor-like protein 3 (Homo sapiens, UniProt Q96JM7).
T3 sequence (Q96JM7 whole entry): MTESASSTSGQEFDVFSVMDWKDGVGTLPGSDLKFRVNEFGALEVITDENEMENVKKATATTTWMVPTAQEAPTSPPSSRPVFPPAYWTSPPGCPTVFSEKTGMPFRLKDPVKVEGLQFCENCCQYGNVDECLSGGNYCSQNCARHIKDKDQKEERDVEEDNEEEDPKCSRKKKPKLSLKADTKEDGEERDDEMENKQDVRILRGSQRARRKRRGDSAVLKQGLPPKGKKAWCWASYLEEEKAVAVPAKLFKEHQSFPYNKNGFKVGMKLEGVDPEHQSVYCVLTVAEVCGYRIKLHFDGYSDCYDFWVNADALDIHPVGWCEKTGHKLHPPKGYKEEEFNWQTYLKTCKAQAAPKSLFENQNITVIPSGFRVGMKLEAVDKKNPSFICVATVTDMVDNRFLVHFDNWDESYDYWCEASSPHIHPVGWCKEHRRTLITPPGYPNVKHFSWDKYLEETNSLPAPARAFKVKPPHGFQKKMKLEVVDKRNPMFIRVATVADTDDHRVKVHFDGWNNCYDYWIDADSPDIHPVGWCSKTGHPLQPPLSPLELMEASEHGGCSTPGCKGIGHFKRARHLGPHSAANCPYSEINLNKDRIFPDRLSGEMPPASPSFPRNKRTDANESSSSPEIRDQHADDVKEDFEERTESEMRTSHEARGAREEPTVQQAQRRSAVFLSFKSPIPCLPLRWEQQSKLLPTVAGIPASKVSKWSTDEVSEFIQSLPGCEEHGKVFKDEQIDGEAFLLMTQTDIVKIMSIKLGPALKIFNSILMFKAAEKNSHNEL
The test is described as follows: Antagonist activity at His-tagged L3MBTL3 (unknown origin) assessed as inhibition of L3MBTL3/biotinylated H4K20Me2 peptide interaction after 30 mins by AlphaScreen assay.

Test [4] has as its target MBT domain-containing protein 1 (Homo sapiens, UniProt Q05BQ5). The test is described as follows: Antagonist activity at MBTD1 (unknown origin) assessed as inhibition of MBTD1/biotinylated H4K20Me1 peptide interaction after 30 mins by AlphaScreen assay.
Test [5] has as its target T4, Scm-like with four MBT domains protein 1 (Homo sapiens, UniProt Q9UHJ3).
T4 sequence (Q9UHJ3 whole entry): T2 sequence (whole entry)
Nature of the test: Antagonist activity at SFMBT1 (unknown origin) assessed as inhibition of SFMBT1/biotinylated H3K9Me1 peptide interaction after 30 mins by AlphaScreen assay.

Test [6] has as its target T5, Chromobox protein homolog 7 (Homo sapiens, UniProt O95931).
T5 sequence (O95931 whole entry): T1 sequence (whole entry)
Nature of the test: Antagonist activity at Flag-tagged CBX7 (unknown origin) assessed as inhibition of CBX7/biotinylated H3K9Me3 peptide interaction after 30 mins by AlphaScreen assay.

The source made the active and inactive calls. The calls are words filed in the database; no cut-off is given here.

Chain of MBT domain-containing protein 1 (Q05BQ5 whole entry, the tested form may be a part): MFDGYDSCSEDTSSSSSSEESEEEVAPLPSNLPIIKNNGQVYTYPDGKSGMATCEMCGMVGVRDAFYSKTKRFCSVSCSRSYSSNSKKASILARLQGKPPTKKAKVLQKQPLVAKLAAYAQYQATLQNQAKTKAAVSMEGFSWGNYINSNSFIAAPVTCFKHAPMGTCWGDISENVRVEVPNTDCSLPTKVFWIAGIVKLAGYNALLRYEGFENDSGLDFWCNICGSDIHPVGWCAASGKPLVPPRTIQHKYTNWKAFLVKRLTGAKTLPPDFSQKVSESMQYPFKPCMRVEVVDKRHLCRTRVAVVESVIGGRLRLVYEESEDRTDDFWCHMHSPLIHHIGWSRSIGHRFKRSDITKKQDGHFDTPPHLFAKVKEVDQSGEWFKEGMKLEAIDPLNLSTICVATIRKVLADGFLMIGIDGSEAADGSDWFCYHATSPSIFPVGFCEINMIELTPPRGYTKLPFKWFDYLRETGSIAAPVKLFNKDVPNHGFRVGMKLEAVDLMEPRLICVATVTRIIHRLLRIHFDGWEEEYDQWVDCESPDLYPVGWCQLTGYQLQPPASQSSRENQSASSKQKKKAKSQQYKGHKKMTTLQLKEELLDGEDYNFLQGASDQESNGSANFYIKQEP

Turning to `CN1CCCC1C1CCN(C(=O)c2cccc(Br)c2)CC1` (centres undefined), the inhibition result in test [1] and in test [2] was “inactive” in each case. Further, the concentration for half-maximal inhibition (IC50) in test [3] was 21 µM; in test [4], over 30 µM; in test [5] it was over 30 µM; in test [6], over 30 µM.

Regarding `CC1CCCN1C1CCN(C(=O)c2cccc(Br)c2)CC1` (centres undefined), the inhibition entry in test [1] and in test [2] was “inactive” throughout. Further, the IC50 in test [3], in test [4], in test [5] and in test [6] was over 30 µM each time.

In the case of `O=C(c1cccc(Br)c1)N1CCC(N2CCCC2)CC1`, the inhibition in test [1] was found to be 11%; in test [2], 12%. Moreover, the IC50 in test [3] was 3.2 µM; in test [4], over 30 µM; in test [5] it was over 30 µM; in test [6], over 30 µM.

Consider `O=C(c1cccc(Br)c1)N1CCC(N2CCC2)CC1`, for which the inhibition in test [1] was 11%. In test [2], the inhibition entry is “inactive”. Also, the IC50 in test [3] was 23.8 µM; in test [4], over 30 µM; in test [5] it was over 30 µM; in test [6] it was over 30 µM.

Consider `O=C(c1cccc(Br)c1)N1CCN(C2CCCC2)CC1`, for which, in test [1], the inhibition stood at 1%. Besides, the inhibition entry in test [2] is “inactive”. For the same molecule, the IC50 in test [3], in test [4], in test [5] and in test [6] was over 30 µM throughout.

Turning to `O=C(c1cccc(Br)c1)N1CCC(C2CCCN2)CC1` (centres undefined), the inhibition result in test [1] and in test [2] was “inactive” each time. Moreover, the results for the IC50 in test [4], in test [5] and in test [6] were 9.2 µM, over 30 µM and over 30 µM, respectively.

With `O=C(O)c1cccc(C(=O)N2CCC(N3CCCC3)CC2)c1`, in test [1], the inhibition came to 4%. In addition, the inhibition result in test [2] was “inactive”. Besides, the half-inhibitory concentration (IC50) is 6.9 µM in test [3], over 30 µM in test [4], over 30 µM in test [5] and over 30 µM in test [6].

Regarding `O=C(c1cccc(Br)c1)N1CCC(N2CCCCC2)CC1`, in test [1], the inhibition was determined as 3%. For the same molecule, the inhibition result in test [2] is “inactive”. Besides, the IC50 is over 30 µM in test [3], 29.7 µM in test [4], over 30 µM in test [5] and over 30 µM in test [6].

For `CC(c1cccc(Br)c1)N1CCC(N2CCCC2)CC1` (racemic), the inhibition entry in test [1] and in test [2] was “inactive” throughout. The IC50 in test [3] is 16 µM; in test [4] it was 9 µM; in test [5], over 30 µM; in test [6], over 30 µM.

For the molecule `C[N+]1(C2CCN(C(=O)c3cccc(Br)c3)CC2)CCCC1`, the inhibition in test [1] came to 17%. Further, in test [2], the inhibition result was “inactive”. In addition, the IC50 in test [3], in test [4], in test [5] and in test [6] was over 30 µM each time.

On to `CN(C)C1CCN(C(=O)c2cccc(Br)c2)CC1`, for which the inhibition result in test [1] and in test [2] was “inactive” each time. Further, the IC50 in test [3], in test [4], in test [5] and in test [6] was over 30 µM throughout.

For the molecule `O=C(c1cccc(Br)c1)N1CCC(N2CCCC2)C1` (centres undefined), in test [1], the inhibition was determined as 4%. The inhibition result in test [2] is “inactive”. Moreover, the half-maximal inhibitory concentration (IC50) in test [3], in test [4], in test [5] and in test [6] was over 30 µM throughout.

Consider `CNC1CCN(C(=O)c2cccc(Br)c2)CC1`, for which, in test [1], the inhibition was determined as 3%. In addition, the inhibition entry in test [2] is “inactive”. For the same molecule, the half-inhibitory concentration (IC50) in test [3], in test [4], in test [5] and in test [6] was over 30 µM in each case.

Consider `O=S(=O)(c1cccc(Br)c1)N1CCC(N2CCCC2)CC1`, for which the inhibition entry in test [1] and in test [2] was “inactive” in each case. In addition, the IC50 in test [3] is 3.7 µM; in test [4] it was 21.9 µM; in test [5], over 30 µM; in test [6] it was over 30 µM.

With `Brc1cccc(CN2CCC(N3CCCC3)CC2)c1`, the inhibition result in test [1] and in test [2] was “inactive” in each case. Besides, the IC50 is 13.3 µM in test [3], 18.6 µM in test [4], over 30 µM in test [5] and over 30 µM in test [6].
